Experiments:
Test in all cases: Histone peptide microarray
Assay type in all cases: binding, human
[1] = test system: PHF23; conditions: GST-tagged PHF23; histone peptide array; arrays performed twice, n of 4
Outline: (§1)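 Using an optimized microarray protocol, purified GST-tagged PHD fingers were incubated at 0.5 μM on 293 histone peptides with single or multiple modifications, and array signal was recorded as the average of 4 replicates.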

[2] = test system: MORC3 (CW); conditions: GST-tagged MORC3 (CW = CW-type Zn-finger); histone peptide array; arrays performed twice, n of 4
Outline: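 A peptide microarray holding 293 synthetic histone peptides with individual or combinatorial modifications was probed with each GST-PHD protein at 0.5 μM. Values represent mean intensity (±SD) from four replicates.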

[3] = test system: PHF2; conditions: GST-tagged PHF2; histone peptide array; arrays performed twice, n of 4
Outline: as §1

[4] = test system: ING4; conditions: GST-tagged ING4; histone peptide array; arrays performed twice, n of 4
Outline: as §1

[5] = test system: ING2; conditions: GST-tagged ING2; histone peptide array; arrays performed twice, n of 4
Outline: as §1

[6] = test system: CHD4 (PPCC); conditions: GST-tagged CHD4 (PPCC = Dual PHD + Dual Chromodomain); histone peptide array; arrays performed twice, n of 4
Outline: as §1

[7] = test system: KDM5B (3); conditions: GST-tagged KDM5B (3); histone peptide array; arrays performed twice, n of 4
Outline: as §1

[8] = test system: KDM5A (3); conditions: GST-tagged KDM5A (3); histone peptide array; arrays performed twice, n of 4
Outline: as §1

[9] = test system: DIDO1; conditions: GST-tagged DIDO1; histone peptide array; arrays performed twice, n of 4
Outline: as §1

[10] = test system: DPF2 (PPC2W2); conditions: GST-tagged DPF2 (PPC2W2 = Dual PHD + C2W2-type Zn-finger); histone peptide array; arrays performed twice, n of 4
Outline: as §1

[11] = test system: KDM7A; conditions: GST-tagged KDM7A; histone peptide array; arrays performed twice, n of 4
Outline: as §1

[12] = test system: PHF13; conditions: GST-tagged PHF13; histone peptide array; arrays performed twice, n of 4
Outline: as §1

[13] = test system: BPTF (PB); conditions: GST-tagged BPTF (PB = PHD + Bromodomain); histone peptide array; arrays performed twice, n of 4
Outline: as §1

[14] = test system: SP140L; conditions: GST-tagged SP140L; histone peptide array; arrays performed twice, n of 4
Outline: as §1

[15] = test system: ING3; conditions: GST-tagged ING3; histone peptide array; arrays performed twice, n of 4
Outline: as §1

[16] = test system: BAZ2B; conditions: GST-tagged BAZ2B; histone peptide array; arrays performed twice, n of 4
Outline: as §1

[17] = test system: PHF8; conditions: GST-tagged PHF8; histone peptide array; arrays performed twice, n of 4
Outline: as §1

[18] = test system: KDM4C (TTP); conditions: GST-tagged KDM4C (TTP = Tandem Tudor domain + PHD); histone peptide array; arrays performed twice, n of 4
Outline: as §1

[19] = test system: CHD5 (PPCC); conditions: GST-tagged CHD5 (PPCC = Dual PHD + Dual Chromodomain); histone peptide array; arrays performed twice, n of 4
Outline: as §1

[20] = test system: PHRF1 (RP); conditions: GST-tagged PHRF1 (RP); histone peptide array; arrays performed twice, n of 4
Outline: as §1

[21] = test system: TRIM66 (PB); conditions: GST-tagged TRIM66 (PB = PHD + Bromodomain); histone peptide array; arrays performed twice, n of 4
Outline: as §1

[22] = test system: KDM5A (1); conditions: GST-tagged KDM5A (1); histone peptide array; arrays performed twice, n of 4
Outline: as §1

[23] = test system: RAG2; conditions: GST-tagged RAG2; histone peptide array; arrays performed twice, n of 4
Outline: as §1

[24] = test system: MLL5; conditions: GST-tagged MLL5; histone peptide array; arrays performed twice, n of 4
Outline: as §1

[25] = test system: TAF3; conditions: GST-tagged TAF3; histone peptide array; arrays performed twice, n of 4
Outline: as §1

[26] = test system: AIRE (PP); conditions: GST-tagged AIRE (PP); histone peptide array; arrays performed twice, n of 4
Outline: as §1

[27] = test system: PHF21A; conditions: GST-tagged PHF21A; histone peptide array; arrays performed twice, n of 4
Outline: as §1

[28] = test system: CHD5 (PCC); conditions: GST-tagged CHD5 (PCC = PHD + Dual Chromodomain); histone peptide array; arrays performed twice, n of 4
Outline: as §1

[29] = test system: ING1; conditions: GST-tagged ING1; histone peptide array; arrays performed twice, n of 4
Outline: as §1

[30] = test system: KDM5B (1); conditions: GST-tagged KDM5B (1); histone peptide array; arrays performed twice, n of 4
Outline: as §1

[31] = test system: ING5; conditions: GST-tagged ING5; histone peptide array; arrays performed twice, n of 4
Outline: as §1

| Substance | Array Heatmap signal, PHF23 [1] | Array Heatmap signal, MORC3 (CW) [2] | Array Heatmap signal, PHF2 [3] | Array Heatmap signal, ING4 [4] | Array Heatmap signal, ING2 [5] | Array Heatmap signal, CHD4 (PPCC) [6] | Array Heatmap signal, KDM5B (3) [7] | Array Heatmap signal, KDM5A (3) [8] | Array Heatmap signal, DIDO1 [9] | Array Heatmap signal, DPF2 (PPC2W2) [10] | Array Heatmap signal, KDM7A [11] | Array Heatmap signal, PHF13 [12] | Array Heatmap signal, BPTF (PB) [13] | Array Heatmap signal, SP140L [14] | Array Heatmap signal, ING3 [15] | Array Heatmap signal, BAZ2B [16] | Array Heatmap signal, PHF8 [17] | Array Heatmap signal, KDM4C (TTP) [18] | Array Heatmap signal, CHD5 (PPCC) [19] | Array Heatmap signal, PHRF1 (RP) [20] | also measured |
| --- | --- | --- | --- | --- | --- | --- | --- | --- | --- | --- | --- | --- | --- | --- | --- | --- | --- | --- | --- | --- | --- |
| H3R2me1 + K4me2: H3 1-20 | 0.6929 | 0.6321 | 0.6699 | 0.4775 | 0.678 | 0.6115 | 0.6308 | 0.6755 | 0.7623 | 0.7133 | 0.344 | 0.6859 | 0.3634 | 0.3804 | 0.5383 | 0.4449 | 0.4684 | 0.4903 | 0.5419 | 0.5537 | Array Heatmap signal, TRIM66 (PB) [21]: 0.6589; Array Heatmap signal, KDM5A (1) [22]: 0.4465; Array Heatmap signal, RAG2 [23]: 0.5456; Array Heatmap signal, MLL5 [24]: 0.577; Array Heatmap signal, TAF3 [25]: 0.4954; Array Heatmap signal, AIRE (PP) [26]: 0.3934; Array Heatmap signal, PHF21A [27]: 0.4826; Array Heatmap signal, CHD5 (PCC) [28]: 0.8739; Array Heatmap signal, ING1 [29]: 0.6158; Array Heatmap signal, KDM5B (1) [30]: 0.6024; Array Heatmap signal, ING5 [31]: 0.3522 |
| H3R2me1 + K4me3 + K9ac + K14ac + K18ac: H3 1-20 | 0.7743 | 0.7963 | 0.7659 | 0.4735 | 0.7542 | 0.5338 | 0.6033 | 1 | 0.9369 | 0.7016 | 0.4977 | 0.6575 | 0.497 | 0.3363 | 0.5459 | 0.5242 | 0.711 | 0.6022 | 0.5534 | 0.4594 | Array Heatmap signal, TRIM66 (PB) [21]: 0.5379; Array Heatmap signal, KDM5A (1) [22]: 0.4772; Array Heatmap signal, RAG2 [23]: 0.5848; Array Heatmap signal, MLL5 [24]: 0.7798; Array Heatmap signal, TAF3 [25]: 0.3972; Array Heatmap signal, AIRE (PP) [26]: 0.4342; Array Heatmap signal, PHF21A [27]: 0.4576; Array Heatmap signal, CHD5 (PCC) [28]: 0.7637; Array Heatmap signal, ING1 [29]: 0.6321; Array Heatmap signal, KDM5B (1) [30]: 0.6999; Array Heatmap signal, ING5 [31]: 0.3861 |
| H3R2me1 + K4me3: H3 1-20 | 0.6587 | 0.559 | 0.6232 | 0.4768 | 0.6934 | 0.5344 | 0.6417 | 0.7567 | 0.7532 | 0.645 | 0.6442 | 0.6851 | 0.4045 | 0.3558 | 0.5249 | 0.4816 | 0.5511 | 0.6626 | 0.5498 | 0.4461 | Array Heatmap signal, TRIM66 (PB) [21]: 0.573; Array Heatmap signal, KDM5A (1) [22]: 0.4891; Array Heatmap signal, RAG2 [23]: 0.5131; Array Heatmap signal, MLL5 [24]: 0.6848; Array Heatmap signal, TAF3 [25]: 0.4375; Array Heatmap signal, AIRE (PP) [26]: 0.5251; Array Heatmap signal, PHF21A [27]: 0.4726; Array Heatmap signal, CHD5 (PCC) [28]: 0.789; Array Heatmap signal, ING1 [29]: 0.6223; Array Heatmap signal, KDM5B (1) [30]: 0.7101; Array Heatmap signal, ING5 [31]: 0.3615 |
| H3R2me2a + K4ac + K9ac + K14ac + K18ac: H3 1-20 | 0.5405 | 0.3697 | 0.4783 | 0.4485 | 0.5976 | 0.5562 | 0.4924 | 0.405 | 0.6585 | 0.6307 | 0.4047 | 0.6029 | 0.3551 | 0.3281 | 0.5009 | 0.5184 | 0.3535 | 0.4988 | 0.5571 | 0.4078 | Array Heatmap signal, TRIM66 (PB) [21]: 0.5934; Array Heatmap signal, KDM5A (1) [22]: 0.4917; Array Heatmap signal, RAG2 [23]: 0.259; Array Heatmap signal, MLL5 [24]: 0.5333; Array Heatmap signal, TAF3 [25]: 0.2624; Array Heatmap signal, AIRE (PP) [26]: 0.481; Array Heatmap signal, PHF21A [27]: 0.4733; Array Heatmap signal, CHD5 (PCC) [28]: 0.8359; Array Heatmap signal, ING1 [29]: 0.488; Array Heatmap signal, KDM5B (1) [30]: 0.6453; Array Heatmap signal, ING5 [31]: 0.3422 |

Reference: PMC6979384, “Characterization of the plant homeodomain (PHD) reader family for their histone tail interactions” (Epigenetics & Chromatin, 2020)
